According to ChEMBL document CHEMBL4024706 (Eur J Med Chem, 2017):

What was measured:
[1] = molecular target: Cyclin-dependent kinase 15 (Homo sapiens) (UniProt Q96Q40); assay: Inhibition of wild-type human full length PFTAIRE2 (M1 to W384 residues) expressed in bacterial expression system assessed as residual activity at 1 uM by Kinomescan method relative to control
[2] = system: Fibroblast growth factor receptor 3 (Homo sapiens), P22607 [G697C]; assay: Inhibition of human partial length FGFR3 G697C mutant (R442 to S771 residues) expressed in bacterial expression system assessed as residual activity at 1 uM by Kinomescan method relative to control
[3] = molecular target: Cyclin-dependent kinase 11A (Homo sapiens) (UniProt Q9UQ88); assay: Inhibition of wild-type human partial length CDC2L2 (D391 to K730 residues) expressed in bacterial expression system assessed as residual activity at 1 uM by Kinomescan method relative to control
[4] = molecular target: Insulin receptor (Homo sapiens) (UniProt P06213); assay: Inhibition of wild-type human partial length INSR (P997 to E1318 residues) expressed in mammalian expression system assessed as residual activity at 1 uM by Kinomescan method relative to control
Sequence of Insulin receptor (Homo sapiens) (P06213 28-758 limits assumed): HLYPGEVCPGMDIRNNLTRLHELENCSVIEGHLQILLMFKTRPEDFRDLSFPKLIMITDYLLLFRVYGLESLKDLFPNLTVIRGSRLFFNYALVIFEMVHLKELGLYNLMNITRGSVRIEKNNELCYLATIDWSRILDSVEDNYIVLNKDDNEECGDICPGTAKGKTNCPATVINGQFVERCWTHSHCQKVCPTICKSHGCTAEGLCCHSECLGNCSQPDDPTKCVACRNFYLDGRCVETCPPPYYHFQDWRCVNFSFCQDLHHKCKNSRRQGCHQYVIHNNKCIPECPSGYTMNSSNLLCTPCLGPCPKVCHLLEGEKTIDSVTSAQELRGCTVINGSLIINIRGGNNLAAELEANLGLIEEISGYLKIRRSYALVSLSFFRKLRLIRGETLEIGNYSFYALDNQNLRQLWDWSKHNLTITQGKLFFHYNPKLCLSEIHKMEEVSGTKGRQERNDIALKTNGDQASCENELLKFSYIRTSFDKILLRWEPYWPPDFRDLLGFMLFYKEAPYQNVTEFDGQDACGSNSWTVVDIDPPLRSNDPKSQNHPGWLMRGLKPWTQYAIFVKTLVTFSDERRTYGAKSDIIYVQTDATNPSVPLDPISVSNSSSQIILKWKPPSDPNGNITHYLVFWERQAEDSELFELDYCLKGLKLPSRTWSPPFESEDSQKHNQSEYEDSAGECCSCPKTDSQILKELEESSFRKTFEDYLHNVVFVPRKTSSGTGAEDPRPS
Sequence of Insulin receptor (Homo sapiens) (P06213 763-1382 limits assumed): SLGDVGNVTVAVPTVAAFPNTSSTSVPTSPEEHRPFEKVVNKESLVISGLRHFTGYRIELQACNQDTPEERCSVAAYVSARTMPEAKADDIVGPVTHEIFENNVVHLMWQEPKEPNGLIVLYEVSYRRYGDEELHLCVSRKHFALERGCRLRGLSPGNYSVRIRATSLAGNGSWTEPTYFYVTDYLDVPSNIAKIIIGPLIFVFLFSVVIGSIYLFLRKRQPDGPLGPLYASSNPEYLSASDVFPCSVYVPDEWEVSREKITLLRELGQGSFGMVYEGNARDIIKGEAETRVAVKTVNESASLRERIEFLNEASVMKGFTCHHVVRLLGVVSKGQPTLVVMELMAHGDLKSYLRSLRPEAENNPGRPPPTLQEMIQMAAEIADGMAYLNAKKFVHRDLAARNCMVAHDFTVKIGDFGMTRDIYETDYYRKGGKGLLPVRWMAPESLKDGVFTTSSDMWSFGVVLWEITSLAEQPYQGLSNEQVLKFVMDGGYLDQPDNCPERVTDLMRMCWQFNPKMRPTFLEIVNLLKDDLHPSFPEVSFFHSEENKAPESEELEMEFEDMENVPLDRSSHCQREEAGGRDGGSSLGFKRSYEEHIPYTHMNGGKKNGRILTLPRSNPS

[5] = Elimination half-life in Sprague-Dawley rat at 10 mg/kg, po by LC-MS/MS method; type: ADME, organism-based; settings: in vivo, read-out: beta t1/2 (converted)
[6] = molecular target: Tyrosine-protein kinase Lyn (Homo sapiens) (UniProt P07948); assay: Inhibition of wild-type human partial length LYN (C219 to Q511 residues) expressed in bacterial expression system assessed as residual activity at 1 uM by Kinomescan method relative to control
Sequence of Tyrosine-protein kinase Lyn (Homo sapiens) (P07948 2-512 limits assumed): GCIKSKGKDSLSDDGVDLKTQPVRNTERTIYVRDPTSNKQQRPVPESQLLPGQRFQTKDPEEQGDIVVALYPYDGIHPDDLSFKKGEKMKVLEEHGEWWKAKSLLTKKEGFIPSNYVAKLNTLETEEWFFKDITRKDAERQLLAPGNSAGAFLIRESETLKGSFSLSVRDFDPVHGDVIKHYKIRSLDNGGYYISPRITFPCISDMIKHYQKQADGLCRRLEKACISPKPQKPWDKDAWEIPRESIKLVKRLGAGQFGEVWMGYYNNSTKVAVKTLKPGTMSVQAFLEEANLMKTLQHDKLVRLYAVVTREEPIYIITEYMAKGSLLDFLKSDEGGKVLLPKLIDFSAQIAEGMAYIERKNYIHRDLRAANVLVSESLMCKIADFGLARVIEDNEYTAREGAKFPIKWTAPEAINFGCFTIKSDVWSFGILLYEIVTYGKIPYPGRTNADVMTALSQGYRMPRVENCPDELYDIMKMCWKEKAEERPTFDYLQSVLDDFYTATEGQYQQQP

[7] = molecular target: Epithelial discoidin domain-containing receptor 1 (Homo sapiens) (UniProt Q08345); assay: Inhibition of wild-type human partial length DDR1 (R565 to V876 residues) expressed in bacterial expression system assessed as residual activity at 1 uM by Kinomescan method relative to control
Sequence of Epithelial discoidin domain-containing receptor 1 (Homo sapiens) (Q08345 whole entry, the tested form may be a part): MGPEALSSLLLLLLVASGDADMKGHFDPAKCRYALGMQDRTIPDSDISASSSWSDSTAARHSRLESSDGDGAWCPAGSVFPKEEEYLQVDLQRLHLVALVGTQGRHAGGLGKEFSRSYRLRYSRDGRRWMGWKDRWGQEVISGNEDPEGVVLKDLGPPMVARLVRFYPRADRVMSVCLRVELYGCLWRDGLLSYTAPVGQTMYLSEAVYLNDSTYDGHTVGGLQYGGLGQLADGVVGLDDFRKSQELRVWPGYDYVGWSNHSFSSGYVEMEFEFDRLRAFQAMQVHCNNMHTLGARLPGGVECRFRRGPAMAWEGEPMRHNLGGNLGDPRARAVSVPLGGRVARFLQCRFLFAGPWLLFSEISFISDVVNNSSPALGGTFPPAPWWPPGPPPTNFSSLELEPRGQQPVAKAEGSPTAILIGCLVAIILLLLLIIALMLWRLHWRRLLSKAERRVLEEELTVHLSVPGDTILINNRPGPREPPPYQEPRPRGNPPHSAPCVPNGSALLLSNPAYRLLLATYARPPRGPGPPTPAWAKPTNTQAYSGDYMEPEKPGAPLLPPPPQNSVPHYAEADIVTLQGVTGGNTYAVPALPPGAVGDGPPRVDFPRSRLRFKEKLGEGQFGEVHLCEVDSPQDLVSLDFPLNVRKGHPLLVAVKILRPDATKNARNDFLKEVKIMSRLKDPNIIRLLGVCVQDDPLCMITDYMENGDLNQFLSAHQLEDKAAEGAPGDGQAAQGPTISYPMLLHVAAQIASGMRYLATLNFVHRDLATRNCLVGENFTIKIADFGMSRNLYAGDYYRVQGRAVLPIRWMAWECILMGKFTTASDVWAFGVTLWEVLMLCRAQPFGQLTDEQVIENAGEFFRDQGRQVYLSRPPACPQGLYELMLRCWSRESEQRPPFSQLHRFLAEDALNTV

Homo sapiens = species: Homo sapiens; assay: Inhibition of human partial length FLT3 ITD/D835V double mutant expressed in bacterial expression system assessed as residual activity at 1 uM by Kinomescan method relative to control
[8] = system: Phosphatidylinositol 4,5-bisphosphate 3-kinase catalytic subunit alpha isoform (Homo sapiens), P42336 [C420R]; assay: Inhibition of human partial length PIK3CA C420R mutant (R108 to N1068 residues) expressed in mammalian expression system assessed as residual activity at 1 uM by Kinomescan method relative to control
[9] = molecular target: Protein-tyrosine kinase 2-beta (Homo sapiens) (UniProt Q14289); assay: Inhibition of wild-type human full length PYK2 (M1 to E967 residues) expressed in bacterial expression system assessed as residual activity at 1 uM by Kinomescan method relative to control
[10] = molecular target: Inhibitor of nuclear factor kappa-B kinase subunit alpha (Homo sapiens) (UniProt O15111); assay: Inhibition of wild-type human full length IKK-alpha (M1 to E745 residues) expressed in mammalian expression system assessed as residual activity at 1 uM by Kinomescan method relative to control
[11] = molecular target: CDK4/Cyclin D3 (Homo sapiens) (UniProt P11802+P30281); assay: Inhibition of wild-type human full length CDK4/cyclinD3 (M1 to E303 residues) expressed in mammalian expression system assessed as residual activity at 1 uM by Kinomescan method relative to control
[12] = molecular target: Serine/threonine-protein kinase 16 (Homo sapiens) (UniProt O75716); assay: Inhibition of wild-type human partial length STK16 (G11 to I305 residues) expressed in bacterial expression system assessed as residual activity at 1 uM by Kinomescan method relative to control
[13] = system: Proto-oncogene tyrosine-protein kinase receptor Ret (Homo sapiens), P07949 [V804L]; assay: Inhibition of human partial length RET V804L mutant (E713 to D1014 residues) expressed in bacterial expression system assessed as residual activity at 1 uM by Kinomescan method relative to control
[14] = molecular target: Ribosomal protein S6 kinase alpha-5 (Homo sapiens) (UniProt O75582); assay: Inhibition of wild-type human partial length N-terminal RPS6KA5 kinase domain 1 expressed in bacterial expression system assessed as residual activity at 1 uM by Kinomescan method relative to control
Sequence of Ribosomal protein S6 kinase alpha-5 (Homo sapiens) (O75582 whole entry, looked up, the tested form may be a part): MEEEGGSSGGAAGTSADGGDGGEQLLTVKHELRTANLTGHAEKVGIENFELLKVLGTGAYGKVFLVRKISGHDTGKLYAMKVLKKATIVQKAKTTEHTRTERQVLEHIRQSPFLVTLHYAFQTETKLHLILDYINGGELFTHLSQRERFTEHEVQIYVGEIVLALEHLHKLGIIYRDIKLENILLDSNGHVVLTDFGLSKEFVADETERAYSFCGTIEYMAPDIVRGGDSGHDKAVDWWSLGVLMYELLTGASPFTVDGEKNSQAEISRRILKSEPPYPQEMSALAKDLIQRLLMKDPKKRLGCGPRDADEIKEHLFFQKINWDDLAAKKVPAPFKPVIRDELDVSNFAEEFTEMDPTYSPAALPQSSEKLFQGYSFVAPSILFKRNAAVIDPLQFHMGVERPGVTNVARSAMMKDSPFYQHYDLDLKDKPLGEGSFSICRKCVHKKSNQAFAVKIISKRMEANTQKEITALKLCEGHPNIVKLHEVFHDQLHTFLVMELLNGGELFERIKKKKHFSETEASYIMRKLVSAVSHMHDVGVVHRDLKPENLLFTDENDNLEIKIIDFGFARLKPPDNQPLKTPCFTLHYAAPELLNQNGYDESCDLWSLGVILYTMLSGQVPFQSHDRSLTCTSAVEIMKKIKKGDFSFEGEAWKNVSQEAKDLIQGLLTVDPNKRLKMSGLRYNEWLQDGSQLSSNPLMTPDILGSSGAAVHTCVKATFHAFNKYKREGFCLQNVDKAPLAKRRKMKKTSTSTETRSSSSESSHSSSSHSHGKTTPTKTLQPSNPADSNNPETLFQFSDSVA

[15] = molecular target: Activin receptor type-2B (Homo sapiens) (UniProt Q13705); assay: Inhibition of wild-type human ACVR2B (H169 to D504 residues) expressed in bacterial expression system assessed as residual activity at 1 uM by Kinomescan method relative to control
[16] = molecular target: Mitogen-activated protein kinase kinase kinase 11 (Homo sapiens) (UniProt Q16584); assay: Inhibition of wild-type human partial length MLK3 (I77 to W399 residues) expressed in bacterial expression system assessed as residual activity at 1 uM by Kinomescan method relative to control
[17] = molecular target: Serine/threonine-protein kinase D1 (Homo sapiens) (UniProt Q15139); assay: Inhibition of wild-type human partial length PRKD1 (G551 to E870 residues) expressed in bacterial expression system assessed as residual activity at 1 uM by Kinomescan method relative to control
Sequence of Serine/threonine-protein kinase D1 (Homo sapiens) (Q15139 whole entry, the tested form may be a part): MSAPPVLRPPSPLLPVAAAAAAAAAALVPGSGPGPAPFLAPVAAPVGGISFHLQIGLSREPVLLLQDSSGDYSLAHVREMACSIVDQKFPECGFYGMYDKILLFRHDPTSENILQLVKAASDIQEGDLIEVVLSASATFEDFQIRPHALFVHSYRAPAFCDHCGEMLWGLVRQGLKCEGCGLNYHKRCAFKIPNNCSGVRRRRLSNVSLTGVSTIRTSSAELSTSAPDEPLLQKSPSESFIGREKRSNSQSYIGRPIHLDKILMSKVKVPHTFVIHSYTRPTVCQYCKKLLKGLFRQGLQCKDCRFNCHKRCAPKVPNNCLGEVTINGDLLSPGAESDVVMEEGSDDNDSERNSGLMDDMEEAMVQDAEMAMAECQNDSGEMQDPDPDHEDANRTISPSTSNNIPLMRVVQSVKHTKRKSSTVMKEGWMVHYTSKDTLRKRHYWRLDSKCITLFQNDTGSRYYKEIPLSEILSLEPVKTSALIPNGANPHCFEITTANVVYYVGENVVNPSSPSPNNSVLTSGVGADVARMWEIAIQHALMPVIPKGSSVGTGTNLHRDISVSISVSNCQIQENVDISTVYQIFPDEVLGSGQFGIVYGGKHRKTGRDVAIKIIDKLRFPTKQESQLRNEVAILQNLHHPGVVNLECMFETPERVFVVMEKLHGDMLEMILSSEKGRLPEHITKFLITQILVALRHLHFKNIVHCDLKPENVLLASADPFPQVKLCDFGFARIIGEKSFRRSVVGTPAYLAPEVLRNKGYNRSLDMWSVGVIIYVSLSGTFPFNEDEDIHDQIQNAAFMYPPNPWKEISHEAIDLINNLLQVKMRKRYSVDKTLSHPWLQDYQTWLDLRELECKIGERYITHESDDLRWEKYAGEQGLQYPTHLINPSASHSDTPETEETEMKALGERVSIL

[18] = AUC (0 to infinity) in Sprague-Dawley rat at 1 mg/kg, iv by LC-MS/MS method; type: ADME, organism-based; set-up: dose 1 mg/kg, route intravenous, time infinity; settings: in vivo
[19] = molecular target: Peripheral plasma membrane protein CASK (Homo sapiens) (UniProt O14936); assay: Inhibition of wild-type human partial length CASK (M1 to H315 residues) expressed in mammalian expression system assessed as residual activity at 1 uM by Kinomescan method relative to control
[20] = molecular target: Mitogen-activated protein kinase 14 (Homo sapiens) (UniProt Q16539); assay: Inhibition of wild-type human full length p38-alpha (M1 to S360 residues) expressed in bacterial expression system assessed as residual activity at 1 uM by Kinomescan method relative to control
[21] = molecular target: Casein kinase I isoform alpha-like (Homo sapiens) (UniProt Q8N752); assay: Inhibition of wild-type human full length CSNK1A1L (M1 to N337 residues) expressed in bacterial expression system assessed as residual activity at 1 uM by Kinomescan method relative to control
[22] = molecular target: Activated CDC42 kinase 1 (Homo sapiens) (UniProt Q07912); assay: Inhibition of wild-type human partial length TNK2 (S159 to D474 residues) expressed in bacterial expression system assessed as residual activity at 1 uM by Kinomescan method relative to control
Pfeiffer = assay: Cell cycle arrest in human Pfeiffer cells assessed as increase in accumulation at G0/G1 phase after 48 hrs by propidium iodide/RNase staining based flow cytometric method; type: functional
[23] = molecular target: Mitogen-activated protein kinase kinase kinase 7 (Homo sapiens) (UniProt O43318); assay: Inhibition of wild-type human partial length TAK1 (M1 to Q303 residues) expressed in mammalian expression system assessed as residual activity at 1 uM by Kinomescan method relative to control
[24] = system: Phosphatidylinositol 4,5-bisphosphate 3-kinase catalytic subunit alpha isoform (Homo sapiens), P42336 [H1047Y]; assay: Inhibition of human partial length PIK3CA H1047Y mutant (R108 to N1068 residues) expressed in mammalian expression system assessed as residual activity at 1 uM by Kinomescan method relative to control

Sequence of Cyclin-dependent kinase 15 (Homo sapiens) (Q96Q40 whole entry, the tested form may be a part): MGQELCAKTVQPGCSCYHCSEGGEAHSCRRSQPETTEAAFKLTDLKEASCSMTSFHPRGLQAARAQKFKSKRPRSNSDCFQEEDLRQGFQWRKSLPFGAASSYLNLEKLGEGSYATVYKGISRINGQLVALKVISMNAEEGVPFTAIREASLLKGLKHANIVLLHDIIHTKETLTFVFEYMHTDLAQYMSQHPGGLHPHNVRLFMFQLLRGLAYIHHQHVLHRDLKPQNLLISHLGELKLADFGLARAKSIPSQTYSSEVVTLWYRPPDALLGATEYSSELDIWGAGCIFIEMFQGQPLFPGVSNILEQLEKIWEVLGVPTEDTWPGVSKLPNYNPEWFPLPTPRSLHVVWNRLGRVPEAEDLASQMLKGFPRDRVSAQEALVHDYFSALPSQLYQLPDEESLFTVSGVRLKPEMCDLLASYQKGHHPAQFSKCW

SMILES: C=CC(=O)Nc1cc(Nc2cc(-c3cccc(NC(=O)c4ccc(C(C)(C)C)cc4)c3C)cn(C)c2=O)ccc1C(=O)N1CCOCC1
- Activity [1]: 97%
- Activity [2]: 100%
- Activity [3]: 94%
- Activity [4]: 100%
- half-life [5]: 1.33 h
- Activity [6]: 92%
- Activity [7]: 100%
- Activity (Homo sapiens): 100%
- Activity [8]: 100%
- Activity [9]: 100%
- Activity [10]: 100%
- Activity [11]: 100%
- Activity [12]: 99%
- Activity [13]: 100%
- Activity [14]: 97%
- Activity [15]: 73%
- Activity [16]: 100%
- Activity [17]: 100%
- AUC(0-inf) [18]: 183 ng·h/mL
- Activity [19]: 95%
- Activity [20]: 100%
- Activity [21]: 100%
- Activity [22]: 95%
- Activity (Pfeiffer): Dose-dependent effect
- Activity [23]: 89%
- Activity [24]: 91%
